Measurements published in patent publication US4886750A, “Process for the preparation of a pharmaceutically active compound in a stereospecific form of the formula” (priority 1986, dated 1989).

Columns and labels:
[1] = target: T1, E. coli pNAPT-7 cell lysate (Bacillus subtilis, UniProt Q59248); assay: hydrolysis of ester substrates by E. coli pNAPT-7 cell lysate (Example 13); format: biochemical, Bacillus subtilis Thai I-8; settings: for enzyme activity on substrate: 25° C., 0.1 MOPS pH 7.5, 0.3 mg ester/ml, 2% Tween, 1 mg/ml BSA, 2 hours
T1 construct: ammonium sulphate-precipitated, ultrafiltered lysate; about 31 kDa, untagged wild type
Procedure: The E. coli pNAPT-7 cell lysate after ammonium sulphate precipitation and ultrafiltration was tested on the hydrolysis of the ethyl ester of R and S-ibuprofen.
The enzyme activity was assayed at 25° C. in 0.1 MOPS buffer pH 7.5 with 0.3 mg of R or S-ibuprofen ethyl ester/ml, 2% Tween and 1 mg/ml BSA. After 2 hours incubation the reaction was stopped by the addition of acetonitrile.
The reaction mixture was analyzed on a HPLC-reversed phase column (Chrompack Polygosil 60D-10CN, 250×4.6 mm), eluted with 34% acetonitrile, 0.05M phosphoric acid pH 3.0 at a flow rate of 1.5 ml/min. Retention times for R and S-ibuprofen and the ethyl ester of R and S-ibuprofen were 5.98 minutes and 11.08 minutes respectively.

[2] = S-enantiomer vs antipode; cited from earlier work

T1 sequence (Q59248 entry or part of it): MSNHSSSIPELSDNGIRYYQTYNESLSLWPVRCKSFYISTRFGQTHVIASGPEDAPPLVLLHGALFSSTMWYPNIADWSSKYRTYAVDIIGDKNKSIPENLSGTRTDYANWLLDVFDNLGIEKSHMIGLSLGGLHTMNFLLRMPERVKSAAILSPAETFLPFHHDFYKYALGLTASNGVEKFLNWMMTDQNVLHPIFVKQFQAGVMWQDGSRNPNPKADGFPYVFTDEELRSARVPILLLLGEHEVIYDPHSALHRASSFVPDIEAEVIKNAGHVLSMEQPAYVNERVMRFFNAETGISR

SMILES | enzyme activity on substrate [1] [u/l] | S-specificity ([1]; Table 12, ibuprofen ethyl ester) [%] | hydrolysis relative to the hydrolysing activity of the methyl ester of S-naproxen ([1]; tested under the same conditions) [%] | in vitro anti-inflammatory activity of the S-enantiomer relative to its antipode [2]
CCOC(=O)[C@H](C)c1ccc(CC(C)C)cc1 [R-ibuprofen ethyl ester, ethyl 2-(4-isobutyl-1-phenyl) propionate] | 1865 |  |  | 
CCOC(=O)[C@@H](C)c1ccc(CC(C)C)cc1 [S-ibuprofen ethyl ester, ethyl 2-(4-isobutyl-1-phenyl) propionate] | 39600 | 95.3 | 60 | 
COC(=O)[C@@H](C)c1ccc2cc(OC)ccc2c1 [S-naproxen methyl ester, methyl 2-(6-methoxy-2-naphthyl) propionate] | 65000 |  |  | 
CC(C)Cc1ccc([C@H](C)C(=O)O)cc1 [ibuprofen, 2-(4-isobutyl-1-phenyl) propionic acid] |  |  |  | up to 150 times
COc1ccc2cc([C@H](C)C(=O)O)ccc2c1 [naproxen, 2-(6-methoxy-2-naphthyl) propionic acid] |  |  |  | up to 150 times
